≈ marks a conversion by molar mass, not a printed value. Entries after “also recorded” stand apart in the source; their conditions may differ.
How the values were obtained:
[1] = system: Mtb spontaneous-resistant mutants 1 to 3 / rMtb-L176P; type: cell-based, Mycobacterium tuberculosis
[2] = system: M. tuberculosis MI1020; assay: microbe, parasite or virus in culture; type: cell-based; conditions: Mycobacterium tuberculosis
[3] = system: Mtb strains; assay: MIC, summary statement for Mtb strains; type: cell-based; conditions: Mycobacterium tuberculosis
[4] = system: M. tuberculosis 59744; assay: microbe, parasite or virus in culture; type: cell-based; conditions: Mycobacterium tuberculosis
[5] = system: M. tuberculosis MB3649; assay: microbe, parasite or virus in culture; type: cell-based; conditions: Mycobacterium tuberculosis
[6] = system: M. tuberculosis 43061; assay: microbe, parasite or virus in culture; type: cell-based; conditions: Mycobacterium tuberculosis
[7] = system: Mtb-T313A; type: cell-based, Mycobacterium tuberculosis
[8] = system: drug resistant isolates; assay: microbe, parasite or virus in culture; type: cell-based, M. tuberculosis; conditions: Mycobacterium tuberculosis
[9] = system: M. tuberculosis 49975; assay: microbe, parasite or virus in culture; type: cell-based; conditions: Mycobacterium tuberculosis
[10] = system: M. tuberculosis 45776; assay: microbe, parasite or virus in culture; type: cell-based; conditions: Mycobacterium tuberculosis

For `Cc1c(OCC(F)(F)F)ccnc1CSc1nc2ccccc2[nH]1` [LPZS, Lanzoprazole sulfide], the “resistance of mutants against compound” value [1] was “stable phenotypic resistance”, the MIC [2] was 0.94 µM (≈ 0.332 µg/mL) and the MIC [3] was less than 2 µM. The MIC [4] was 0.78 µM (≈ 0.276 µg/mL), the MIC [5] was 1.37 µM (≈ 0.484 µg/mL) and the MIC [6] was 0.49 µM (≈ 0.173 µg/mL). For the same compound, the “activity against T313A mutant” value [7] was “active; also recorded: does not confer high level resistance”, the MIC [8] was less than 2 µM and the MIC [9] was 1.06 µM (≈ 0.375 µg/mL). The MIC [10] was 0.52 µM (≈ 0.184 µg/mL).

For `CCc1nc2ccc(Cl)cn2c1C(=O)NCc1ccc(N2CCC(c3ccc(OC(F)(F)F)cc3)CC2)cc1` [Q203, reference compound], the “activity against T313A mutant” value [7] was “resistant; also recorded: high level resistance”.
